The values below come from US10457707B2, “Substituted urea depsipeptide analogs as activators of the CLPP endopeptidase” (priority 2015, dated 2019).

Common to all, as to type: cell-based
In assay [1] the test system is Enterococcus faecalis, ATCC 33186. The assay is described as follows: Minimal inhibitory concentration assay (microbroth dilution). Put shortly:
(§1)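 Broth microdilution per CLSI M7-A7: two-fold serial dilutions of compound in broth (top final concentration 200 μM) were inoculated with ~10^5 cfu/mL bacteria and incubated aerobically overnight at 37 °C. MIC was read visually as the lowest concentration preventing growth.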
(In general: Dilution methods test growth across graded concentrations, often in twofold steps.)

Assay [2] relates to Staphylococcus aureus, USA 300 wherein ClpP is inactivated. The assay is described as follows: Minimal inhibitory concentration assay. Put shortly:
as §1

For assay [3], the system named is Staphylococcus aureus, USA 300. The assay is described as follows: Minimal inhibitory concentration assay. The conditions noted are these: USA300, read-out: Minimal Inhibitory Concentrations S. aureus USA 300. The method in brief: as §1
The test system of assay [4] is Streptococcus pneumoniae, R6. Briefly: Minimal inhibitory concentration assay. The conditions noted are these: read-out: Minimal Inhibitory Concentrations S. pneumoniae R6. The method in brief:
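Microbroth dilution with two-fold serial compound dilutions in broth, incubated aerobically overnight at 37° C. MIC taken as the lowest concentration preventing bacterial growth.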

[5] abbreviates: Enterococcus faecalis, ATCC33186, read-out: Minimal Inhibitory Concentrations E. faecalis ATCC 33186.
[6] abbreviates: Enterococcus faecalis, ATCC33186; read-out: Minimal Inhibitory Concentrations E. faecalis ATCC 33186.

Molecules are shown by their SMILES. In brackets after ≈: the same amount, converted by molar mass. Like-named read-outs stand apart in the source and are kept apart here. *1 amine or outer side, *2 acyl side, *3 side chain or, on linkers, in order; H or OH if unused. Where a SMILES comes first, the peptide text is derived from it. Bridges are numbered along the chain shown (N, C = ends). [ ]: non-standard residue; d: D form. The star is where a group is joined. ξ: configuration not given here. Phe(3,5-F2) = N[C@@H](Cc1cc(F)cc(F)c1)C(=O)O; NH(4-OCF3-phenyl) = FC(F)(F)Oc1ccc(N*)cc1; Morpholine(3S-CO) = O=C(O)[C@@H]1COCCN1; Pro(4S-Me) = C[C@@H]1CN[C@H](C(=O)O)C1; Pro(4R-Me) = C[C@H]1CN[C@H](C(=O)O)C1; NH(3,4-Me2-phenyl) = Cc1ccc(N*)cc1C; NMeaThr = CN[C@H](C(=O)O)[C@H](C)O; Hyp = O=C(O)[C@@H]1C[C@@H](O)CN1; NH(4-Me-phenyl) = Cc1ccc(N*)cc1; ξNMeThr = CNC(C(=O)O)[C@@H](C)O; aThr = C[C@H](O)[C@H](N)C(=O)O; Pip = O=C(O)[C@@H]1CCCCN1; NMeA = CN[C@@H](C)C(=O)O; X1 = N#Cc1cc(N*)ccc1F; CO = O=C([*:1])[*:2]; ξP = O=C(O)C1CCCN1

As to `Cc1ccc(NC(=O)N[C@@H](Cc2cc(F)cc(F)c2)C(=O)N[C@@H]2C(=O)N3CCC[C@H]3C(=O)N(C)[C@@H]([C@H](C)O)C(=O)N[C@@H](C)C(=O)N3C[C@@H](C)C[C@H]3C(=O)O[C@H]2C)cc1` [Compound 202, (S)-3-(3,5-difluorophenyl)-N-((2S,6S,9S,11aS,17S,18S,20aS)-9-((S)-1-hydroxyethyl)-2,6,10,18-tetramethyl-5,8,11,16,20-pentaoxohexadecahydro-1H,5H,16H-dipyrrolo[2,1-c:2′,1′-L][1]oxa[4,7,10,13]tetraazacyclohexadecin-17-yl)-2-(3-(p-tolyl)ureido)propanamide] ({NH(4-Me-phenyl)-CO}-[Phe(3,5-F2)][aThr]P[NMeaThr]A[Pro(4S-Me)]; ester 2-C), the figures for the MIC in assay [1] (setting [5]), in assay [3] and in assay [4] were 0.049 µM (≈ 0.0398 µg/mL), 0.195 µM (≈ 0.158 µg/mL) and 0.049 µM (≈ 0.0398 µg/mL), respectively. Further, in assay [2], the “Minimal Inhibitory Concentrations S. aureus USA 300 ΔClpP” value turned out to be 200 µM.
Take `C[C@H]1C[C@H]2C(=O)O[C@@H](C)[C@H](NC(=O)[C@H](Cc3cc(F)cc(F)c3)NC(=O)Nc3ccc(OC(F)(F)F)cc3)C(=O)N3CCC[C@H]3C(=O)N(C)[C@@H]([C@H](C)O)C(=O)N[C@@H](C)C(=O)N2C1` [Compound 203, (S)-3-(3,5-difluorophenyl)-N-((2S,6S,9S,11aS,17S,18S,20aS)-9-((S)-1-hydroxyethyl)-2,6,10,18-tetramethyl-5,8,11,16,20-pentaoxohexadecahydro-1H,5H,16H-dipyrrolo[2,1-c:2′,1′-l][1]oxa[4,7,10,13]tetraazacyclohexadecin-17-yl)-2-(3-(4-(trifluoromethoxy)phenyl)ureido)propanamide] ({NH(4-OCF3-phenyl)-CO}-[Phe(3,5-F2)][aThr]P[NMeaThr]A[Pro(4S-Me)]; ester 2-C): the MIC stood at 0.781 µM (≈ 0.689 µg/mL) in assay [1] (setting [6]), 0.098 µM (≈ 0.0864 µg/mL) in assay [3] and 0.024 µM (≈ 0.0212 µg/mL) in assay [4]. The “Minimal Inhibitory Concentrations S. aureus USA 300 ΔClpP” value in assay [2] stood at 50 µM.
`C[C@@H]1C[C@H]2C(=O)OC[C@H](NC(=O)[C@H](Cc3ccccc3)NC(=O)Nc3ccc(OC(F)(F)F)cc3)C(=O)N3CCC[C@H]3C(=O)N3CCCC[C@H]3C(=O)N[C@@H](C)C(=O)N2C1` [Compound 205]: the MIC in assay [1] (E. faecalis ATCC 33186; read-out: Minimal Inhibitory Concentrations E. faecalis ATCC 33186) came out at 0.02 µM (≈ 0.0166 µg/mL); in assay [4], 0.2 µM (≈ 0.166 µg/mL).
Take `Cc1ccc(NC(=O)N[C@@H](Cc2ccccc2)C(=O)N[C@H]2COC(=O)[C@@H]3C[C@@H](C)CN3C(=O)[C@H](C)NC(=O)[C@@H]3CCCCN3C(=O)[C@@H]3CCCN3C2=O)cc1C` [Compound 206, (S)—N-((2R,6S,8aS,14aS,20S,23aS)-2,6-dimethyl-5,8,14,19,23-pentaoxooctadecahydro-1H,5H,14H,19H-pyrido[2,1-i]dipyrrolo[2,1-c:2′,1′-l][1]oxa[4,7,10,13]tetraazacyclohexadecin-20-yl)-2-(3-(3,4-dimethylphenyl)ureido)-3-phenylpropanamide]: the MIC in assay [1] (setting [5]) and in assay [4] was less than 0.2 µM each time.
For the molecule `Cc1ccc(NC(=O)N[C@@H](Cc2cc(F)cc(F)c2)C(=O)N[C@H]2COC(=O)[C@@H]3C[C@@H](C)CN3C(=O)[C@H](C)NC(=O)[C@@H]3CCCCN3C(=O)[C@@H]3CCCN3C2=O)cc1C` [Compound 207, (S)-3-(3,5-difluorophenyl)-N-((2R,6S,8aS,14aS,20S,23aS)-2,6-dimethyl-5,8,14,19,23-pentaoxooctadecahydro-1H,5H,14H,19H-pyrido[2,1-i]dipyrrolo[2,1-c:2′,1′-l][1]oxa[4,7,10,13]tetraazacyclohexadecin-20-yl)-2-(3-(3,4-dimethylphenyl)ureido)propanamide], the MIC in assay [1] (setting [5]) and in assay [4] was less than 0.2 µM each time.
On to `Cc1ccc(NC(=O)N[C@@H](Cc2cc(F)cc(F)c2)C(=O)N[C@@H]2C(=O)N3C[C@H](O)C[C@H]3C(=O)N3CCCC[C@H]3C(=O)N[C@@H](C)C(=O)N3C[C@H](C)C[C@H]3C(=O)O[C@H]2C)cc1C` [Compound 212, (S)-3-(3,5-difluorophenyl)-2-(3-(3,4-dimethylphenyl)ureido)-N-((2R,6S,8aS,14aS,16R,20S,21S,23aS)-16-hydroxy-2,6,21-trimethyl-5,8,14,19,23-pentaoxooctadecahydro-1H,5H,14H,19H-pyrido[2,1-i]dipyrrolo[2,1-c:2′,1′-l][1]oxa[4,7,10,13]tetraazacyclohexadecin-20-yl)propanamide] ({NH(3,4-Me2-phenyl)-CO}-[Phe(3,5-F2)][aThr][Hyp][Pip]A[Pro(4R-Me)]; ester 2-C), for which the “Minimal Inhibitory Concentrations S. aureus USA 300 ΔClpP” value in assay [2] was more than 200 µM. The MIC was found to be 0.1 µM (≈ 0.0838 µg/mL) in assay [3] and 0.002 µM (≈ 0.00168 µg/mL) in assay [4].
Take `C[C@@H]1NC(=O)[C@H](C)N(C)C(=O)[C@@H]2CCCN2C(=O)[C@@H](NC(=O)[C@H](Cc2ccccc2)NC(=O)Nc2ccc(OC(F)(F)F)cc2)COC(=O)C2CCCN2C1=O` (stereo partly drawn) [Compound 213, (2S)-3-phenyl-2-(3-(4-(trifluoromethoxy)phenyl)ureido)-N-((6S,9S,11aS,17S)-6,9,10-trimethyl-5,8,11,16,20-pentaoxohexadecahydro-1H,5H,16H-dipyrrolo[2,1-c:2′,1′-l][1]oxa[4,7,10,13]tetraazacyclohexadecin-17-yl)propanamide] ({NH(4-OCF3-phenyl)-CO}-FSP[NMeA]A[ξP]; ester 2-C): the MIC in assay [1] (setting [6]) is 0.39 µM (≈ 0.307 µg/mL); in assay [4] it was less than 0.2 µM.
`Cc1ccc(NC(=O)N[C@@H](Cc2cc(F)cc(F)c2)C(=O)N[C@H]2COC(=O)[C@@H]3C[C@@H](C)CN3C(=O)[C@H](C)NC(=O)C([C@@H](C)O)N(C)C(=O)[C@@H]3CCCN3C2=O)cc1` (stereo partly drawn) [Compound 322, (S)-3-(3,5-difluorophenyl)-N-((2R,6S,9R,11aS,17S,20aS)-9-((R)-1-hydroxyethyl)-2,6,10-trimethyl-5,8,11,16,20-pentaoxohexadecahydro-1H,5H,16H-dipyrrolo[2,1-c:2′,1′-l][1]oxa[4,7,10,13]tetraazacyclohexadecin-17-yl)-2-(3-(p-tolyl)ureido)propanamide] ({NH(4-Me-phenyl)-CO}-[Phe(3,5-F2)]SP[ξNMeThr]A[Pro(4R-Me)]; ester 2-C): the MIC in assay [1] (setting [5]) was more than 20 µM; in assay [4], 0.156 µM (≈ 0.124 µg/mL). Besides, the “Minimal Inhibitory Concentrations S. aureus USA 300 ΔClpP” value in assay [2] worked out at 0.625 µM.
Turning to `Cc1ccc(NC(=O)N[C@@H](Cc2cc(F)cc(F)c2)C(=O)N[C@H]2COC(=O)[C@@H]3C[C@@H](C)CN3C(=O)[C@H](C)NC(=O)C3CCCCN3C(=O)[C@@H]3C[C@@H](O)CN3C2=O)cc1` (stereo partly drawn) [Compound 323, (S)-3-(3,5-difluorophenyl)-N-((2R,6S,8aR,14aS,16R,20S,23aS)-16-hydroxy-2,6-dimethyl-5,8,14,19,23-pentaoxooctadecahydro-1H,5H,14H,19H-pyrido[2,1-i]dipyrrolo[2,1-c:2′,1′-l][1]oxa[4,7,10,13]tetraazacyclohexadecin-20-yl)-2-(3-(p-tolyl)ureido)propanamide], the “Minimal Inhibitory Concentrations S. aureus USA 300 ΔClpP” value in assay [2] is more than 20 µM. In addition, the MIC was determined as 1.25 µM (≈ 1.01 µg/mL) in assay [3] and 0.078 µM (≈ 0.0632 µg/mL) in assay [4].
As for `C[C@@H]1C[C@H]2C(=O)O[C@@H](C)[C@H](NC(=O)[C@H](Cc3cc(F)cc(F)c3)NC(=O)Nc3ccc(F)c(C#N)c3)C(=O)N3CCC[C@H]3C(=O)N3CCCC[C@H]3C(=O)N[C@@H](C)C(=O)N2C1` [Compound 324, (S)-2-(3-(3-cyano-4-fluorophenyl)ureido)-3-(3,5-difluorophenyl)-N-((2R,6S,8aS,14aS,20S,21S,23aS)-2,6,21-trimethyl-5,8,14,19,23-pentaoxooctadecahydro-1H,5H,14H,19H-pyrido[2,1-i]dipyrrolo[2,1-c:2′,1′-l][1]oxa[4,7,10,13]tetraazacyclo-hexadecin-20-yl)propanamide] ({X1-CO}-[Phe(3,5-F2)][aThr]P[Pip]A[Pro(4R-Me)]; ester 2-C), the “Minimal Inhibitory Concentrations S. aureus USA 300 ΔClpP” value in assay [2] was more than 20 µM. Further, the MIC in assay [3] and in assay [4] was 0.625 µM (≈ 0.523 µg/mL) in each case.
With `C[C@@H]1C[C@H]2C(=O)OC[C@H](NC(=O)[C@H](Cc3cc(F)cc(F)c3)NC(=O)Nc3ccc4c(c3)OCO4)C(=O)N3C[C@H](O)C[C@H]3C(=O)N3CCCCC3C(=O)N[C@@H](C)C(=O)N2C1` (stereo partly drawn) [Compound 325, (S)-2-(3-(benzo[d][1,3]dioxol-5-yl)ureido)-3-(3,5-difluorophenyl)-N-((2R,6S,8aR,14aS,16R,20S,23aS)-16-hydroxy-2,6-dimethyl-5,8,14,19,23-pentaoxooctadecahydro-1H,5H,14H,19H-pyrido[2,1-i]dipyrrolo[2,1-c:2′,1′-l][1]oxa[4,7,10,13]tetraazacyclo-hexadecin-20-yl)propanamide], the “Minimal Inhibitory Concentrations S. aureus USA 300 ΔClpP” value in assay [2] was more than 20 µM. Also, the MIC came out at 2.5 µM (≈ 2.1 µg/mL) in assay [3] and 0.078 µM (≈ 0.0655 µg/mL) in assay [4].
The corresponding values for `C[C@@H]1C[C@H]2C(=O)O[C@@H](C)[C@H](NC(=O)[C@H](Cc3cc(F)cc(F)c3)NC(=O)Nc3ccc(F)c(C#N)c3)C(=O)N3C[C@H](O)C[C@H]3C(=O)N3CCOC[C@H]3C(=O)N[C@@H](C)C(=O)N2C1` [Compound 326, (S)-2-(3-(3-cyano-4-fluorophenyl)ureido)-3-(3,5-difluorophenyl)-N-((6aS,8R,12S,13S,15aS,17R,21S,23aS)-8-hydroxy-13,17,21-trimethyl-6,11,15,20,23-pentaoxooctadecahydro-6H,11H,15H-[1,4]oxazino[3,4-i]dipyrrolo[2,1-c:2′,1′-l][1]oxa[4,7,10,13]tetraazacyclo-hexadecin-12-yl)propanamide] ({X1-CO}-[Phe(3,5-F2)][aThr][Hyp][Morpholine(3S-CO)]A[Pro(4R-Me)]; ester 2-C) are more than 20 µM, 20 µM (≈ 17.1 µg/mL) and 0.625 µM (≈ 0.534 µg/mL).
